Data on one molecule can be found in PMC10223062, “Discovery of Novel Thiophene/Hydrazones: In Vitro and In Silico Studies against Pancreatic Cancer” (Pharmaceutics, 2023).

Assay [1] concerns MIA PaCa-2 tumor spheroids. The experiment in a line: 3D spheroid formation/growth assay. The assay is classed as cell-based, human. The settings on record: 10 µM, after 9 days of treatment. The method, then: (§1) For the preliminary assessment of anticancer activity in a 2D cell culture system, an MIA PaCa-2 human pancreas epithelial carcinoma (CRL-1420™) cell line (ATCC, Manassas, VA, USA) was cultured in Dulbecco’s Modified Eagle Medium with 10% fetal bovine serum (FBS, v/v) (Gibco, Billings, MT, USA) and supplemented with 1% antibiotics (10,000 μg/mL streptomycin and 10,000 U/mL penicillin) (Gibco, Billings, MT, USA) at 37 °C in a humidified 5% CO2 atmosphere. For the in vitro modeling of the tumor microenvironment, compounds were also tested in a 3D spheroid test system. For this purpose, the MIA PaCa-2 human pancreas epithelial carcinoma (CRL-1420™) cell line and human dermal fibroblast cell line HDF (PCS-201-012) cells were used.
For 3D spheroid formation, the MIA PaCa-2 cells (PC cell line) and HDF cells were used according to the 3D Bioprinting method. To better simulate the tumor microenvironment, PC cells were mixed (1:1) with human fibroblasts. Briefly, the MIA PaCa-2 cells and human fibroblasts at 70–80% confluency were added to a 6-well plate and incubated with biocompatible NanoShuttle TM-PL (Bioprinting Kit, Greiner Bio-One, Germany) overnight at 37 °C in a humidified 5% CO2 atmosphere. After the nanoparticles were taken up by the cells, they were resuspended and seeded into an ultra-low attachment 96-well plate at a volume of 100 μL (2000 PC cells and 2000 human fibroblasts per well) volume. The plate was placed on a magnetic drive and incubated at 37 °C in a humidified 5% CO2 atmosphere until spheroids were formed. After two days of incubation, the spheroids were photographed using light microscopy (Carl Zeiss Primo Vert, Germany). Fresh medium containing 0.1, 1, 10, and 100 µM of tested compound was added to the wells. Photos were taken every 72 h, and the medium was replaced every 72 h. The effect of the tested compounds in 3D PC cell cultures was examined by measuring the size change of spheroids using ImageJ software (ImageJ 2.0 software, USA).

The test system of another assay is HaCaT cell line. The experiment in a line: Cell viability (cytotoxicity) in healthy cells, MTT assay. The assay is classed as cell-based, human. The settings on record: Homo sapiens, HaCaT; MTT, 72 h, healthy keratinocytes; read-out: IC50 in 2D cultured HaCaT cell line. The method, then:
HaCaT human healthy keratinocyte cells (CRL-2404™) (ATCC, Manassas, VA, USA) were cultured in DMEM (10% FBS, v/v) (Gibco, Billings, MT, USA), respectively and supplemented with 1% antibiotics (10.000 μg/mL streptomycin and 10.000 units/mL penicillin) (Gibco, Billings, MT, USA) at 37 °C in a humidified atmosphere of 5% CO2. For the preliminary assessment of the cytotoxicity of selected potent compounds in healthy cells, HaCaT cells were seeded 2 × 10^5 cells/mL in 96-well plate and incubated for 24 h. The following day the 7a, 7d, and 7f compounds were applied similarly as in the MIA PaCa-2 cytotoxicity protocol between concentrations 0.62–100 µM for 72 h and then MTT was applied.

For the next assay, the system named is MIA PaCa-2 cell line. The experiment in a line: 2D anticancer activity, MTT assay. The conditions noted are these: Homo sapiens, 72 h exposure, read-out: IC50 in 2D cultured MIA PaCa-2 cell line. The class given is cell-based. How it is done:
as §1
For the assessment of anticancer activity of the compounds, the MIA PaCa-2 cells were plated in 48-well microplates at 1.5 × 10^5 cells/mL and incubated for 24 h at 37 °C in 5% CO2 in accordance with a previously reported method. Following the day, the cells were treated with compounds in various concentrations between 0.1–100 µM dissolved in dimethyl sulfoxide (DMSO) (Sigma Aldrich, St. Louis, MO, USA). Following the 72 h of incubation, culture mediums were discarded and 0.5 mg/mL 3-(4,5-Dimethylthiazol-2-yl)-2,5-Diphenyltetrazolium Bromide (MTT) (Sigma Aldrich, St. Louis, MO, USA) was added to each well for an additional 2 h at 37 °C. After 2 h incubation, the medium was discarded and 100 µL of isopropanol (Sigma Aldrich, St. Louis, MO, USA) was added to the wells to dissolve formazan crystals. The optical density was measured at 570 nm wavelength using a microplate reader (Thermo Fisher Scientific Multiskan, Finland). Doxorubicin hydrochloride (DOX) (European Pharmacopoeia standard, Sigma) was used as internal positive control, and 0.5% DMSO (v/v) was used as negative control. The percentage of cell viability was determined by using the following equation:(1) Viability %=(Absorbancecompound)/(Absorbancenegative control)×100%

Where a name gives a salt, the structure may show the parent alone.

In general, IC50 refers to the concentration needed to halve the response being measured. Consider `COc1cccc2c1C(=O)c1c(O)c3c(c(O)c1C2=O)C[C@@](O)(C(=O)CO)C[C@@H]3O[C@H]1C[C@H](N)[C@H](O)[C@H](C)O1` [DOX, Doxorubicin hydrochloride, reference compound], for which the “Reduction in spheroid size” value in assay [1] is on record as 24%. Further, the figures for the IC50 with HaCaT cell line and with MIA PaCa-2 cell line were 110 ± 80 nM and 350 ± 180 nM, respectively.
